Experimental data as given in PMC6320955, “Self-Dissolving Microneedle Arrays for Transdermal Absorption Enhancement of Human Parathyroid Hormone (1-34)” (Pharmaceutics, 2018).

How the values were obtained:
[1] = system: rats with ovariectomy (OVX)-induced osteoporosis; test: Therapeutic potential in post-menopausal rat model of osteoporosis (OVX); format: in vivo, female Sprague-Dawley rats; details: subcutaneous injection of PTH 20 µg/rat, hematoxylin and eosin
Procedure: The post-menopausal rat model of osteoporosis was established by performing ovariectomies (OVX) of female Sprague-Dawley rats. Four weeks following OVX, PTH-loaded MNs (20 µg/rat) were applied to the rats twice a week, for a period of 4 weeks. Separately, PTH (20 µg/rat) was subcutaneously injected into the rats. Eight weeks after OVX, rats were euthanized, and the tibias were excised and fixed in 4% paraformaldehyde in PBS. The fixed tibias were then embedded in paraffin and sectioned by microtome. The sections of tibias were subsequently stained with hematoxylin and eosin and then used for histological analysis.

[2] = In vivo transdermal delivery of PTH: plasma pharmacokinetics; design: species or system Wistar rats; details: sc, 20 ug/animal, rat, subcutaneous injection of PTH solution, 20 µg/rat, ELISA, mean ± SD of three rats
Procedure: The abdominal skin of Wistar rats was shaved while the animals were placed under pentobarbital anesthesia (52 mg/kg as pentobarbital sodium salt). PTH-loaded MNs (20 µg/rat) were then applied to the abdominal skin of rats. The dosage of PTH in MNs was calculated based on the content of PTH in the needle part of MNs. Separately, PTH solution (20 µg/rat) was subcutaneously injected into the backs of rats. At pre-determined intervals, 0.3 mL of blood was withdrawn from the jugular veins while the animals were placed under pentobarbital anesthesia (52 mg/kg as pentobarbital sodium salt) and collected in tubes containing 0.3 mg of EDTA and 150 KIU of aprotinin. The collected blood was then centrifuged for 15 min at 4000 rpm to obtain plasma. […] The peak PTH plasma concentration (Cmax) and time to reach Cmax (Tmax) were determined directly from the plasma concentration–time profiles. Area under the plasma concentration-time curve (AUC) after transdermal administration or subcutaneous injection was calculated by the trapezoidal formula and extrapolation to infinite time based on monoexponential equation [26].
The PTH in the plasma sample was extracted and purified using SEP-columns. […] Concentrations of PTH were determined using the PTH (1-34) ELISA kit (PTH (1-34), Human, EIA Kit, High Sensitivity, Peninsula Laboratories International, Inc. San Carlos, CA, USA).

[3] = Storage stability of PTH in MNs fabricated from HA and in PBS solution; format: physicochemical; details: PTH dissolved in PBS, PTH (1-34) ELISA, mean of three experiments
Procedure: PTH-loaded MNs were packaged into an aluminum sachet purged with nitrogen and stored at −20 °C, 4 °C, or at room temperature (15–20 °C). PTH solution dissolved in PBS was kept at the same temperatures as the control. Following one month of storage, the needles were separated from the back layers of MNs and dissolved in PBS. The actual amounts of PTH present in the needle parts of the MNs were measured using the PTH (1-34) ELISA kit (PTH (1-34), Human, EIA Kit, High Sensitivity, Peninsula Laboratories International, Inc. San Carlos, CA, USA).

Cmax ([2]; Wistar): 15.1 ± 4.6 ng/mL | Tmax ([2]; in vivo): 30 min | initial PTH retained in the solution after storage ([3]; stored one month at 4 °C): ~84% | initial PTH retained in the solution after storage ([3]; stored one month at room temperature (15–20 °C)): ~13% | initial PTH retained in the solution after storage ([3]; stored one month at −20 °C): approximately 98%
Compound: CC[C@H](C)[C@H](NC(=O)[C@H](CCC(=O)O)NC(=O)[C@H](CO)NC(=O)[C@@H](NC(=O)[C@@H](N)CO)C(C)C)C(=O)N[C@@H](CCC(N)=O)C(=O)N[C@@H](CC(C)C)C(=O)N[C@@H](CCSC)C(=O)N[C@@H](Cc1c[nH]cn1)C(=O)N[C@@H](CC(N)=O)C(=O)N[C@@H](CC(C)C)C(=O)NCC(=O)N[C@@H](CCCCN)C(=O)N[C@@H](Cc1c[nH]cn1)C(=O)N[C@@H](CC(C)C)C(=O)N[C@@H](CC(N)=O)C(=O)N[C@@H](CO)C(=O)N[C@@H](CCSC)C(=O)N[C@@H](CCC(=O)O)C(=O)N[C@@H](CCCNC(=N)N)C(=O)N[C@H](C(=O)N[C@@H](CCC(=O)O)C(=O)N[C@@H](Cc1c[nH]c2ccccc12)C(=O)N[C@@H](CC(C)C)C(=O)N[C@@H](CCCNC(=N)N)C(=O)N[C@@H](CCCCN)C(=O)N[C@@H](CCCCN)C(=O)N[C@@H](CC(C)C)C(=O)N[C@@H](CCC(N)=O)C(=O)N[C@@H](CC(=O)O)C(=O)N[C@H](C(=O)N[C@@H](Cc1c[nH]cn1)C(=O)N[C@@H](CC(N)=O)C(=O)N[C@@H](Cc1ccccc1)C(=O)O)C(C)C)C(C)C [PTH, Human parathyroid hormone (1-34)]
effect on decrease in bone matrix density (tibia histology) [1]: effectively prevented
